We go through 14 compounds from US20250228239A1, “MOLECULES HAVING PESTICIDAL UTILITY, AND INTERMEDIATES, COMPOSITIONS, AND PROCESSES, RELATED THERETO” (priority 2024, published 2025).

Holding throughout (assay type): in vivo
Assay [1] concerns Yellow Fever Mosquito (Aedes aegypti, AEDSAE). A digest of the protocol: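 Mortality after 3 days at room temperature is the read-out, scored well by well and converted to a rating. Test molecules came from 4000 ppm stocks in DMSO, further diluted in 90:10 water/acetone, and were exposed to roughly 1-day-old larvae suspended in liver-powder water.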
For assay [2], the system named is Cabbage Looper (Trichoplusia ni, TRIPNI). Put plainly: Bioassays on Cabbage Looper (CL), 128-well diet tray assay. Particulars: Trichoplusia ni. The method, boiled down:
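Test molecule was dissolved in 90:10 acetone-water, applied to artificial diet at 50 μg/cm^2 and allowed to dry. Second-instar larvae were then added, one to five per well, and trays held at 25° C for five to seven days before mortality was scored and averaged.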

Assay [3] has as its system Green Peach Aphid (Myzus persicae, MYZUPE). As to the kind of experiment: Bioassays on Green Peach Aphid (GPA), foliar spray on cabbage seedlings. Particulars: 72 h. On the procedure:
Certain molecules disclosed in this document were tested against GPA using procedures described in the following example. In the reporting of the results, the “GPA & YFM Rating Table” was used (See Table Section).
Cabbage seedlings grown in 3-inch pots, with 2-3 small (3-5 cm) true leaves, were used as test substrate. The seedlings were infested with 20-50 GPA (wingless adult and nymph stages) one day prior to chemical application. Four pots with individual seedlings were used for each treatment. Test molecules (2 mg) were dissolved in 2 mL of acetone/methanol (1:1) solvent, forming stock solutions of 1000 ppm test molecule. The stock solutions were diluted 5× with 0.025% Tween 20 in water to obtain the solution at 200 ppm test molecule. A hand-held aspirator-type sprayer was used for spraying a solution to both sides of […] leaves until runoff. Reference plants (solvent check) were sprayed with the diluent only containing 20% by volume of acetone/methanol (1:1) solvent. Treated plants were held in a holding room for three days at approximately 25° C. and ambient relative humidity (RH) prior to grading. Evaluation was conducted by counting the number of live aphids per plant under a microscope. Percent control was measured using Abbott's correction formula (W. S. Abbott, “A Method of Computing the Effectiveness of an Insecticide” J. Econ. Entomol. 18 (1925), pp. 265-267) as follows. Corrected % Control=100*(X−Y)/X where X=No. of live aphids on solvent check plants and Y=No. of live aphids on treated plants. The results are indicated in the table entitled “Table ABC: Biological Results” (See Table Section).

Assay [4] deals with Beet Armyworm (Spodoptera exigua, LAPHEG). As to the kind of experiment: Bioassays on Beet Armyworm (BAW), 128-well diet tray assay. The settings on record: Spodoptera exigua. The method, boiled down: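 Percent larval mortality, averaged across eight wells, scored after five to seven days at 25° C. under 14:10 light-dark. Each well held one to five second instars feeding on diet dosed at 50 μg/cm^2 with compound from 90:10 acetone-water, solvent dried off.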

Where [5] appears, read: Yellow Fever Mosquito, rating class.
Where [6] appears, read: Cabbage Looper, rating class, read-out: CL.
Setting [7] is: Green Peach Aphid, rating class, read-out: GPA.
The mark [8] stands for this setting: Beet Armyworm, rating class, read-out: BAW.
Setting [9] is: Table ABC: Biological Results, species YFM.
[10] abbreviates: Table ABC: Biological Results, species CL, read-out: CL.
Setting [11] is: Table ABC: Biological Results, species GPA, read-out: GPA.
Where [12] appears, read: Table ABC: Biological Results, species BAW, read-out: BAW.

Read-outs that look alike come from different tables or passages of the source.

In the case of `CC(Cl)C(=O)Nc1c(F)ccc(NC(=O)c2cc(NC(=O)[C@H]3[C@H](c4ccc(F)c(C(F)(F)F)c4)C3(Cl)Cl)ccc2Cl)c1F` (stereo partly drawn) [F1667, 2-Chloro-N-(3-(2-chloropropanamido)-2,4-difluorophenyl)-5-((1R,3R)-2,2-dichloro-3-(4-fluoro-3-(trifluoromethyl)phenyl)cyclopropane-1-carboxamido)benzamide], the YFM entry in assay [1] (setting [5]) is given as “B (More than 0 – Less than 80)”. Further, the pest or weed control at 50 µg/cm2 in assay [2] (setting [6]) and in assay [4] (setting [8]) was 50 to 100% each time. Moreover, the pest or weed control at 200 µg/mL in assay [3] (setting [7]) was in the range of 0 to 80%.
Take `C#CCN(C(=O)c1cc(NC(=O)[C@H]2[C@H](c3cc(Cl)cc(Cl)c3)C2(Cl)Cl)ccc1Cl)c1ccc(F)cc1C#N` (relative stereo) [F1072, trans-2-Chloro-N-(2-cyano-4-fluorophenyl)-5-(2,2-dichloro-3-(3,5-dichlorophenyl)cyclopropane-1-carboxamido)-N-(prop-2-yn-1-yl)benzamide]: the YFM entry in assay [1] (setting [9]) is reported as “A (80–100)”. Moreover, the pest or weed control at 50 µg/cm2 in assay [2] (setting [10]) and in assay [4] (setting [12]) was 50 to 100% each time. Besides, the pest or weed control at 200 µg/mL in assay [3] (setting [11]) was 0 to 80%.
For `CCNC(=O)c1c(F)ccc(NC(=O)[C@H]2[C@H](c3ccc(F)c(Cl)c3)C2(Cl)Cl)c1F` (relative stereo) [F2016, trans-3-(2,2-Dichloro-3-(3-chloro-4-fluorophenyl)cyclopropane-1-carboxamido)-N-ethyl-2,6-difluorobenzamide], the YFM rating result in assay [1] (Yellow Fever Mosquito, Table ABC / ABC-DP rating) is listed as “A (80–100)”. The pest or weed control at 50 µg/cm2 in assay [2] (Cabbage Looper, Table ABC / ABC-DP rating, read-out: CL rating) lay in the range of 50 to 100%; in assay [4] (Beet Armyworm, Table ABC / ABC-DP rating, read-out: BAW rating), 50 to 100%. In addition, the pest or weed control at 200 µg/mL in assay [3] (Green Peach Aphid, Table ABC / ABC-DP rating, read-out: GPA rating) lay within 80 to 100%.
Turning to `CC(=O)Nc1c(F)ccc(NC(=O)c2cc(NC(=O)[C@H]3[C@H](c4cc(F)cc(C(F)(F)F)c4)C3(Cl)Cl)ccc2Cl)c1F` [F1708, N-(3-Acetamido-2,4-difluorophenyl)-2-chloro-5-((1R,3R)-2,2-dichloro-3-(3-fluoro-5-(trifluoromethyl)phenyl)cyclopropane-1-carboxamido)benzamide], the YFM entry in assay [1] (setting [5]) is given as “A (80–100)”. The pest or weed control at 50 µg/cm2 in assay [2] (setting [6]) and in assay [4] (setting [8]) was 50 to 100% in each case. Further, in assay [3] (setting [7]), the pest or weed control at 200 µg/mL lay in the range of 80 to 100%.
On to `Nc1ccc(F)c(NC(=O)c2cc(NC(=O)[C@H]3[C@H](c4ccc(F)c(Cl)c4)C3(Cl)Cl)ccc2Cl)c1F` [F1247, N-(3-Amino-2,6-difluorophenyl)-2-chloro-5-((1R,3R)-2,2-dichloro-3-(3-chloro-4-fluorophenyl)cyclopropane-1-carboxamido)benzamide], for which the YFM entry in assay [1] (setting [9]) is reported as “A (80–100)”. Further, the pest or weed control at 50 µg/cm2 in assay [2] (setting [10]) and in assay [4] (setting [12]) was 50 to 100% throughout. Further, the pest or weed control at 200 µg/mL in assay [3] (setting [11]) was in the range of 80 to 100%.
On to `O=C(Nc1c(F)ccc(NC(=O)C(F)F)c1F)c1cc(NC(=O)[C@H]2[C@H](c3ccc(Cl)c(Cl)c3)C2(Cl)Cl)ccc1Cl` [F1240, 2-Chloro-5-((1R,3R)-2,2-dichloro-3-(3,4-dichlorophenyl)cyclopropane-1-carboxamido)-N-(3-(2,2-difluoroacetamido)-2,6-difluorophenyl)benzamide], for which, in assay [1] (setting [9]), the YFM result is “A (80–100)”. Further, the pest or weed control at 50 µg/cm2 in assay [2] (setting [10]) and in assay [4] (setting [12]) was 50 to 100% throughout. In addition, the pest or weed control at 200 µg/mL in assay [3] (setting [11]) was 0 to 80%.
For `CC(=O)Nc1cc(F)c(NC(=O)c2cc(NC(=O)[C@H]3[C@H](c4ccc(Cl)c(Cl)c4)C3(Cl)Cl)ccc2Cl)c(F)c1` [F1262, N-(4-Acetamido-2,6-difluorophenyl)-2-chloro-5-((1R,3R)-2,2-dichloro-3-(3,4-dichlorophenyl)cyclopropane-1-carboxamido)benzamide], the pest or weed control at 50 µg/cm2 in assay [2] (setting [10]) and in assay [4] (setting [12]) was 50 to 100% throughout. The pest or weed control at 200 µg/mL in assay [3] (setting [11]) lay within 80 to 100%.
Consider `COCC(=O)Nc1c(F)ccc(NC(=O)c2cc(NC(=O)[C@H]3[C@H](c4ccc(F)c(C(F)(F)F)c4)C3(Cl)Cl)ccc2Cl)c1F` [F1724, 2-Chloro-5-((1R,3R)-2,2-dichloro-3-(4-fluoro-3-(trifluoromethyl)phenyl)cyclopropane-1-carboxamido)-N-(2,4-difluoro-3-(2-methoxyacetamido)phenyl)benzamide], for which the pest or weed control at 50 µg/cm2 in assay [2] (setting [6]) and in assay [4] (setting [8]) was 50 to 100% each time. Also, the pest or weed control at 200 µg/mL in assay [3] (setting [7]) was 80 to 100%.
For `Nc1c(F)ccc(NC(=O)c2cc(NC(=O)[C@H]3[C@H](c4ccc(F)c(Cl)c4)C3(Cl)Cl)cc(F)c2Cl)c1F` [F1255, N-(3-amino-2,4-difluorophenyl)-2-chloro-5-((1R,3R)-2,2-dichloro-3-(3-chloro-4-fluorophenyl)cyclopropane-1-carboxamido)-3-fluorobenzamide], the pest or weed control at 50 µg/cm2 in assay [2] (setting [10]) and in assay [4] (setting [12]) was 50 to 100% each time. In addition, the pest or weed control at 200 µg/mL in assay [3] (setting [11]) was 80 to 100%.
For the compound `CC(=O)Nc1c(F)ccc(NC(=O)c2cc(NC(=O)[C@H]3[C@H](c4ccc(Cl)c(C(F)(F)F)c4)C3(Cl)Cl)ccc2Cl)c1F` [F1658, N-(3-Acetamido-2,4-difluorophenyl)-2-chloro-5-((1R,3R)-2,2-dichloro-3-(4-chloro-3-(trifluoromethyl)phenyl)cyclopropane-1-carboxamido)benzamide], the pest or weed control at 50 µg/cm2 in assay [2] (setting [6]) and in assay [4] (setting [8]) was 50 to 100% each time. Besides, the pest or weed control at 200 µg/mL in assay [3] (setting [7]) was 0 to 80%.
With `N#CCC(=O)Nc1c(F)ccc(NC(=O)c2cc(NC(=O)[C@H]3[C@H](c4ccc(F)c(Cl)c4)C3(Cl)Cl)ccc2Cl)c1F` [F1700, 2-Chloro-N-(3-(2-cyanoacetamido)-2,4-difluorophenyl)-5-((1R,3R)-2,2-dichloro-3-(3-chloro-4-fluorophenyl)cyclopropane-1-carboxamido)benzamide], the pest or weed control at 50 µg/cm2 in assay [2] (setting [6]) and in assay [4] (setting [8]) was 50 to 100% throughout. In addition, the pest or weed control at 200 µg/mL in assay [3] (setting [7]) is 0 to 80%.
Turning to `O=C(Nc1ccc(F)c(NC(=O)C(F)F)c1F)c1cc(NC(=O)[C@H]2[C@H](c3ccc(F)c(C(F)(F)F)c3)C2(Cl)Cl)ccc1F` [F1530, 5-((1R,3R)-2,2-Dichloro-3-(4-fluoro-3-(trifluoromethyl)phenyl)cyclopropane-1-carboxamido)-N-(3-(2,2-difluoroacetamido)-2,4-difluorophenyl)-2-fluorobenzamide], the pest or weed control at 50 µg/cm2 in assay [2] (setting [6]) and in assay [4] (setting [8]) was 50 to 100% in each case. Further, the pest or weed control at 200 µg/mL in assay [3] (setting [7]) was 0 to 80%.
As to `CC(=O)Nc1c(F)ccc(NC(=O)c2cc(NC(=O)[C@H]3[C@H](c4ccc(F)c(C(F)(F)F)c4)C3(Cl)Cl)ccc2F)c1F` [F1531, N-(3-acetamido-2,4-difluorophenyl)-5-((1R,3R)-2,2-dichloro-3-(4-fluoro-3-(trifluoromethyl)phenyl)cyclopropane-1-carboxamido)-2-fluorobenzamide], the pest or weed control at 50 µg/cm2 in assay [2] (setting [6]) and in assay [4] (setting [8]) was 50 to 100% throughout. For the same compound, in assay [3] (setting [7]), the pest or weed control at 200 µg/mL lay in the range of 0 to 80%.
Regarding `CCOC(C)C(=O)Nc1c(F)ccc(NC(=O)c2cc(NC(=O)[C@H]3[C@H](c4ccc(F)c(Cl)c4)C3(Cl)Cl)ccc2Cl)c1F` (stereo partly drawn) [F1698, 2-Chloro-5-((1R,3R)-2,2-dichloro-3-(3-chloro-4-fluorophenyl)cyclopropane-1-carboxamido)-N-(3-(2-ethoxypropanamido)-2,4-difluorophenyl)benzamide], the pest or weed control at 50 µg/cm2 in assay [2] (setting [6]) and in assay [4] (setting [8]) was 50 to 100% each time. Besides, the pest or weed control at 200 µg/mL in assay [3] (setting [7]) lay in the range of 0 to 80%.
